Measured values from patent US20260130858A1, “LYOPHILIZED SOVATELTIDE-BASED INJECTABLE FORMULATION AND A PROCESS FOR PREPARATION” (PHARMAZZ, INC., priority 2023, published 2026).

Assays:
[1] = Solution stability, related substances HPLC method validation (Method 1); settings: standard solution at 5° C.; related substances Method 1
Description: Chromatographic Parameters for method validation of Related Substance of Sovateltide Injection (Method 1): Method-1 utilizes chromatographic conditions to separate and quantify a specific compound of interest. The analytical column used is either the Xtimate C18 Column or the ChromCore 120 C18 Column, both with dimensions of 4.6×250 mm and 5 m. A Ghost Buster Column with dimensions of 4.6×50 mm is used to detect any unexpected peaks, which are usually called ghost peaks that may interfere with the results. The flow rate is set to 0.5 mL/min, with an injection volume of 90 μL. The detection wavelength is 215 nm, and the auto sampler temperature is maintained at 5° C. The column oven temperature is set to 50° C., and the run time for the method is 120 min. […] These parameters ensure the separation and accurate quantification of the compound in the sample.
• Mobile Phase A (KH2PO4+ Sodium Chloride in HPLC water). • Mobile Phase-B (Methanol).

[2] = system: acute cerebral ischemic stroke patients; test: Phase III study in acute cerebral ischemic stroke patients, modified Rankin Scale at day 90; format: in vivo, human; settings: for Odds ratio, change in mRS of 2 or more / Odds ratio, mRS of 0-2 day 90 / Relative Risk, change in mRS of 2 or more / Relative Risk, mRS of 0-2 day 90: control vs sovateltide; for Modified Rankin Scale Day 90, mean: day 90 post-randomization; for Difference between means (B − A) ± SEM, Modified Rankin Scale Day 90: sovateltide minus control
Description: A prospective, multicentric, randomized phase III study was conducted in acute cerebral ischemic stroke patients aged 18 years through 78 years. Patients with radiologic confirmation of ischemic stroke could be enrolled if presenting up to 24 hours after the onset of symptoms and with a modified Rankin Score (mRS) of 3 to 4 and an NIHSS (National Institute of Health Stroke Scale) score of greater than 5. Patients with intracranial haemorrhage and those receiving endovascular therapy were excluded.
Patients were randomized in a 1:1 ratio, 80 patients to the sovateltide group and 78 patients to the control (saline) group. Every patient received the standard of care (SOC) and was followed for 90 days. The study drug (normal saline or sovateltide (0.3 μg/kg) was administered in three doses administered as an intravenous bolus over 1 minute at an interval of 3 hours±1 hour on day 1, day 3, and day 6 (total sovateltide dose of 0.9 μg/kg/day).
The primary objectives were to determine the neurological outcome based on modified Rankin Scale (mRS) score, National Institute of Health Stroke Scale (NIHSS) score, and Barthel Index (BI) scale score from day 1 through day 90. In addition, quality-of-Life was measured by EuroQol-EQ-5D (EQ-5D) and stroke-specific quality-of-life (SSQoL) scores at 60 days and 90 days of treatment.
A total of 158 patients with acute cerebral ischemic stroke were enrolled in this test, of which 137 completed 90-day follow-up. Patients received saline (n=70; 45 male and 25 female) or sovateltide (n=67; 45 male and 22 female) within 24 hours of the onset of stroke. Patients received the investigational drug […] at 16.85±0.74 and 17.40±0.67 hours (mean±SEM, p=0.583) of stroke onset in control and sovateltide cohorts, respectively. The baseline characteristics and SOC in both cohorts were similar.

[3] = with cerebrolysin, listed as sovateltide
[4] = with citicoline, listed as sovateltide
[5] = with mannitol, sovateltide group n=30
[6] = with mannitol, sovateltide group n=30, listed as sovateltide
[7] = with thrombolytics, listed as sovateltide

succinyl-(glutamyl(9)-alanyl(11,15))-endothelin-1 (8-21) [Sovateltide]
Time standard solution is stable [1]: up to 60 Hours | Number of patients with change in mRS < 2 from day 1 to day 90 ([2]; with cerebrolysin): 1 | Number of patients with mRS 0-2 day 90 ([2]; with cerebrolysin): 11 | Number of patients with mRS > 2 day 90 ([2]; with cerebrolysin): 1 | Number of patients, change in mRS of 2 or more from day 1 to day 90 (column head mRS > 2) ([2]; with cerebrolysin): 11 | Percentage of row total, change in mRS < 2 ([2]; with cerebrolysin): 8.33% | Percentage of row total, change in mRS ≥ 2 ([2]; with cerebrolysin): 91.67% | Percentage of row total, mRS 0-2 day 90 ([2]; with cerebrolysin): 91.67% | Percentage of row total, mRS > 2 day 90 ([2]; with cerebrolysin): 8.33% | Odds ratio, change in mRS of 2 or more ([2]; with cerebrolysin): 0.5455 | Odds ratio, mRS of 0-2 day 90 ([2]; with cerebrolysin): 0.8462 | Relative Risk, change in mRS of 2 or more ([2]; with cerebrolysin): 0.9351 | Relative Risk, mRS of 0-2 day 90 ([2]; with cerebrolysin): 0.8571 | Modified Rankin Scale Day 90, mean ([2]; with cerebrolysin, sovateltide group n=12): 0.7500 | Number of patients with mRS 0-2 day 90 [2, 3]: similar | Number of patients, change in mRS of 2 or more from day 1 to day 90 (column head mRS > 2) [2, 3]: similar | Difference between means (B − A) ± SEM, Modified Rankin Scale Day 90 ([2]; with cerebrolysin): −0.3214 ± 0.3517 | Number of patients with change in mRS < 2 from day 1 to day 90 ([2]; with citicoline): 5 | Number of patients with change in mRS ≥ 2 from day 1 to day 90 ([2]; with citicoline): 18 | Number of patients with mRS 0-2 day 90 ([2]; with citicoline): 21 | Number of patients with mRS > 2 day 90 ([2]; with citicoline): 3 | Percentage of row total, change in mRS < 2 ([2]; with citicoline): 21.74% | Percentage of row total, change in mRS ≥ 2 ([2]; with citicoline): 78.26% | Percentage of row total, mRS 0-2 day 90 ([2]; with citicoline): 87.50% | Percentage of row total, mRS > 2 day 90 ([2]; with citicoline): 12.50% | Odds ratio, change in mRS of 2 or more ([2]; with citicoline): 0.3283 | Odds ratio, mRS of 0-2 day 90 ([2]; with citicoline): 4.500 | Relative Risk, change in mRS of 2 or more ([2]; with citicoline): 0.6921 | Relative Risk, mRS of 0-2 day 90 ([2]; with citicoline): 3.130 | Modified Rankin Scale Day 90, mean ([2]; with citicoline, sovateltide group n=24): 1.208 | Modified Rankin Scale Day 90, mean ([2]; with citicoline, sovateltide group n=24, listed as sovateltide): significantly lower | Number of patients with change in mRS ≥ 2 from day 1 to day 90 [2, 4]: significantly more | Number of patients with mRS 0-2 day 90 [2, 4]: significantly more | Difference between means (B − A) ± SEM, Modified Rankin Scale Day 90 ([2]; with citicoline): −0.7917 ± 0.3638 | Percentage of row total, change in mRS < 2 ([2]; with mannitol): 36.67% | Percentage of row total, change in mRS ≥ 2 ([2]; with mannitol): 63.33% | Percentage of row total, mRS 0-2 day 90 ([2]; with mannitol): 63.33% | Percentage of row total, mRS > 2 day 90 ([2]; with mannitol): 36.67% | Odds ratio, change in mRS of 2 or more ([2]; with mannitol): 0.3184 | Odds ratio, mRS of 0-2 day 90 ([2]; with mannitol): 2.735 | Relative Risk, change in mRS of 2 or more ([2]; with mannitol): 0.5603 | Relative Risk, mRS of 0-2 day 90 ([2]; with mannitol): 1.672 | Modified Rankin Scale Day 90, mean [2, 5]: 2.033 | Modified Rankin Scale Day 90, mean [2, 6]: significantly lower | Number of patients with change in mRS < 2 from day 1 to day 90 [2, 5]: 11 | Number of patients with change in mRS ≥ 2 from day 1 to day 90 [2, 5]: 19 | Number of patients with mRS 0-2 day 90 [2, 5]: 19 | Number of patients with mRS > 2 day 90 [2, 5]: 11 | Number of patients with change in mRS ≥ 2 from day 1 to day 90 [2, 6]: significantly more | Number of patients with mRS 0-2 day 90 [2, 6]: significantly more | Difference between means (B − A) ± SEM, Modified Rankin Scale Day 90 ([2]; with mannitol): −0.7086 ± 0.3316 | Number of patients with change in mRS < 2 from day 1 to day 90 ([2]; with thrombolytics): 3 | Number of patients with change in mRS ≥ 2 from day 1 to day 90 ([2]; with thrombolytics): 6 | Number of patients with mRS 0-2 day 90 ([2]; with thrombolytics): 6 | Number of patients with mRS > 2 day 90 ([2]; with thrombolytics): 3 | Percentage of row total, change in mRS < 2 ([2]; with thrombolytics): 33.33% | Percentage of row total, change in mRS ≥ 2 ([2]; with thrombolytics): 66.67% | Percentage of row total, mRS 0-2 day 90 ([2]; with thrombolytics): 66.67% | Percentage of row total, mRS > 2 day 90 ([2]; with thrombolytics): 33.33% | Odds ratio, change in mRS of 2 or more ([2]; with thrombolytics): 0.7500 | Odds ratio, mRS of 0-2 day 90 ([2]; with thrombolytics): 1.333 | Relative Risk, change in mRS of 2 or more ([2]; with thrombolytics): 0.9000 | Relative Risk, mRS of 0-2 day 90 ([2]; with thrombolytics): 1.200 | Modified Rankin Scale Day 90, mean ([2]; with thrombolytics, sovateltide group n=9): 1.667 | Number of patients with change in mRS ≥ 2 from day 1 to day 90 [2, 7]: similar | Number of patients with mRS 0-2 day 90 [2, 7]: similar | Difference between means (B − A) ± SEM, Modified Rankin Scale Day 90 ([2]; with thrombolytics): −0.2833 ± 0.6321
